From PubChem BioAssay (NCI)
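Each compound was tested at five concentrations against cells in 96-well plates for 48 hours. At the TGI there is no net growth.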

How the values were obtained:
Assay in all cases: NCI tumour cell line growth inhibition, 48 h
[1] = system: MCF7 breast
[2] = system: HS 578T breast
[3] = system: SF-539 CNS
[4] = system: T-47D breast
[5] = system: COLO 205 colon
[6] = system: MOLT-4 leukemia
[7] = system: ACHN renal
[8] = system: HCC-2998 colon
[9] = system: CAKI-1 renal
[10] = system: NCI/ADR-RES ovarian
[11] = system: HT29 colon
[12] = system: HCT-15 colon
[13] = system: OVCAR-5 ovarian
[14] = system: MDA-N
[15] = system: SK-MEL-5 melanoma
[16] = system: BT-549 breast
[17] = system: HL-60(TB) leukemia
[18] = system: MALME-3M melanoma
[19] = system: LOX IMVI melanoma
[20] = system: RPMI-8226 leukemia
[21] = system: UACC-62 melanoma
[22] = system: SK-MEL-28 melanoma
[23] = system: SF-295 CNS
[24] = system: SNB-75 CNS
[25] = system: PC-3 prostate
[26] = system: UACC-257 melanoma
[27] = system: IGROV1 ovarian
[28] = system: SNB-19 CNS
[29] = system: NCI-H23 lung
[30] = system: SK-OV-3 ovarian
[31] = system: UO-31 renal
[32] = system: KM12 colon
[33] = system: SW-620 colon
[34] = system: M14 melanoma
[35] = system: SN12C renal
[36] = system: NCI-H522 lung
[37] = system: TK-10 renal
[38] = system: SF-268 CNS
[39] = system: HOP-92 NSCLC
[40] = system: NCI-H226 lung
[41] = system: EKVX NSCLC
[42] = system: MDA-MB-231 breast
[43] = system: MDA-MB-435
[44] = system: 786-0 renal
[45] = system: A498 renal
[46] = system: NCI-H460 lung
[47] = system: HCT-116 colon
[48] = system: OVCAR-4 ovarian
[49] = system: A549 NSCLC
[50] = system: SK-MEL-2 melanoma
[51] = system: CCRF-CEM leukemia
[52] = system: OVCAR-8 ovarian
[53] = system: DU-145 prostate
[54] = system: OVCAR-3 ovarian
[55] = system: U251 CNS
[56] = system: K-562 leukemia
[57] = system: HOP-62 NSCLC
[58] = system: RXF 393 renal
[59] = system: SR leukemia

For `COc1ccc2c(c1OC)C(C(Cl)(Cl)Cl)N1CCc3cc4c(cc3C1=C2)OCO4` (stereo not drawn), the TGI [1] was > 100 µM, the TGI [2] was > 100 µM and the TGI [3] was > 100 µM. The TGI [4] was > 100 µM, the TGI [5] was 20.8 µM and the TGI [6] was 80.9 µM. For the same compound, the TGI [7] was 65.1 µM, the TGI [8] was 29.5 µM and the TGI [9] was > 100 µM. For the same compound, the TGI [10] was > 100 µM, the TGI [11] was 68.4 µM and the TGI [12] was > 100 µM. For the same compound, the TGI [13] was > 100 µM, the TGI [14] was 41 µM and the TGI [15] was 15.4 µM. The TGI [16] was 8.63 µM, the TGI [17] was 45.2 µM and the TGI [18] was 37.3 µM. The TGI [19] was > 100 µM, the TGI [20] was 11.3 µM and the TGI [21] was 30.5 µM. For the same compound, the TGI [22] was 27.8 µM, the TGI [23] was > 100 µM and the TGI [24] was > 100 µM. The TGI [25] was > 100 µM, the TGI [26] was 62.9 µM and the TGI [27] was 98.2 µM. For the same compound, the TGI [28] was > 100 µM, the TGI [29] was > 100 µM and the TGI [30] was 85.9 µM. For the same compound, the TGI [31] was > 100 µM, the TGI [32] was 20.3 µM and the TGI [33] was > 100 µM. The TGI [34] was > 100 µM, the TGI [35] was > 100 µM and the TGI [36] was 35.1 µM. The TGI [37] was > 100 µM, the TGI [38] was 91.1 µM and the TGI [39] was 84.7 µM. The TGI [40] was 70.1 µM, the TGI [41] was > 100 µM and the TGI [42] was > 100 µM. The TGI [43] was 27 µM, the TGI [44] was 55.5 µM and the TGI [45] was > 100 µM. The TGI [46] was 55.3 µM, the TGI [47] was 27.9 µM and the TGI [48] was 69 µM. For the same compound, the TGI [49] was > 100 µM, the TGI [50] was 39.4 µM and the TGI [51] was 62.2 µM. The TGI [52] was > 100 µM, the TGI [53] was 84.7 µM and the TGI [54] was 65.8 µM. For the same compound, the TGI [55] was 43.1 µM.

In the case of `CN(O)C(=O)CCCC(=O)NCC(C)(C)CNC(=O)CCCC(=O)N(C)O`, the TGI [1] is reported as > 100 µM, the TGI [2] is reported as > 100 µM and the TGI [3] is reported as > 100 µM. For the same compound, the TGI [4] was > 100 µM, the TGI [5] was > 100 µM and the TGI [6] was > 100 µM. The TGI [56] was > 100 µM, the TGI [57] was > 100 µM and the TGI [7] was > 100 µM. For the same compound, the TGI [8] was > 100 µM, the TGI [58] was > 100 µM and the TGI [9] was > 100 µM. The TGI [10] was > 100 µM, the TGI [11] was > 100 µM and the TGI [12] was > 100 µM. For the same compound, the TGI [13] was > 100 µM, the TGI [14] was > 100 µM and the TGI [15] was > 100 µM. The TGI [17] was > 100 µM, the TGI [18] was > 100 µM and the TGI [19] was > 100 µM. For the same compound, the TGI [20] was > 100 µM, the TGI [21] was > 100 µM and the TGI [23] was > 100 µM. The TGI [24] was > 100 µM, the TGI [25] was > 100 µM and the TGI [26] was > 100 µM. For the same compound, the TGI [27] was > 100 µM, the TGI [28] was > 100 µM and the TGI [29] was > 100 µM. The TGI [30] was > 100 µM, the TGI [31] was > 100 µM and the TGI [32] was > 100 µM. The TGI [33] was > 100 µM, the TGI [34] was > 100 µM and the TGI [37] was > 100 µM. For the same compound, the TGI [38] was > 100 µM, the TGI [39] was > 100 µM and the TGI [40] was > 100 µM. The TGI [41] was > 100 µM, the TGI [42] was > 100 µM and the TGI [43] was > 100 µM. For the same compound, the TGI [45] was > 100 µM, the TGI [46] was > 100 µM and the TGI [48] was > 100 µM. For the same compound, the TGI [49] was > 100 µM, the TGI [50] was > 100 µM and the TGI [51] was > 100 µM. The TGI [59] was > 100 µM, the TGI [52] was > 100 µM and the TGI [53] was > 100 µM. The TGI [54] was > 100 µM and the TGI [55] was > 100 µM.
